Source: article PMC9881875 (bioRxiv, 2023)
Residues, ends and D or L forms follow the SMILES beside them.

Legend:
TIP-1 PDZ = biological target: T1, TIP-1 PDZ (Homo sapiens, UniProt O14907); test: Fluorescence polarization competition, TIP-1 PDZ
T1 sequence (O14907 9-120): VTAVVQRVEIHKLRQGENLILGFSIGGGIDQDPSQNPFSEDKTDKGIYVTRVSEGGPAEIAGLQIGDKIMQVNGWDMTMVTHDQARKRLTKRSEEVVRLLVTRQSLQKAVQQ

DLG1 PDZ1 (DLG1–1) [1] = biological target: T2, DLG1 PDZ1 (DLG1–1) (Homo sapiens, UniProt Q12959); test: Fluorescence polarization competition, DLG1–1; format: binding
SNX27 PDZ (SNX27) = SNX27 PDZ (SNX27) (Rattus norvegicus, UniProt Q8K4V4); test: Fluorescence polarization competition, SNX27; format: binding
NHERF2 PDZ2 (N2P2) = NHERF2 PDZ2 (N2P2) (Homo sapiens, UniProt Q15599); test: Fluorescence polarization competition, N2P2
NHERF1 PDZ1 (N1P1) = biological target: T3, NHERF1 PDZ1 (N1P1) (Homo sapiens, UniProt O14745); test: Fluorescence polarization competition, N1P1
T3 sequence (O14745 1-139): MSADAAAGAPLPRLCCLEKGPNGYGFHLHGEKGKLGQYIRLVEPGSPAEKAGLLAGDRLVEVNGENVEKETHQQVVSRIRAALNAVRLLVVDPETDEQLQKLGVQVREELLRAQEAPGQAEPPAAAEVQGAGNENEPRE

MAGI1 PDZ2 (MAGI1–2) [2] = biological target: T4, MAGI1 PDZ2 (MAGI1–2) (Homo sapiens, UniProt Q96QZ7); test: Fluorescence polarization competition; format: binding
SCRIB PDZ1 (SCRIB-1) [3] = biological target: T5, SCRIB PDZ1 (SCRIB-1) (Homo sapiens, UniProt Q14160); test: Fluorescence polarization competition, SCRIB-1; format: binding
PTPN3 PDZ (PTPN3) [4] = biological target: T6, PTPN3 PDZ (PTPN3) (Homo sapiens, UniProt P26045); test: Fluorescence polarization competition; format: binding
T6 sequence (P26045 505-597): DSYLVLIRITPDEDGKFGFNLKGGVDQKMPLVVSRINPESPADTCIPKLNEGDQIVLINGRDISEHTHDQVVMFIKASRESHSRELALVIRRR

CAL PDZ = CAL PDZ (Homo sapiens, UniProt Q9HD26); test: Fluorescence polarization competition, CAL PDZ
PTPN3 PDZ (PTPN3) [5] = biological target: T6, PTPN3 PDZ (PTPN3); test: Fluorescence polarization direct binding of reporter peptide, PTPN3
DLG1 PDZ1 (DLG1–1) [6] = biological target: T2, DLG1 PDZ1 (DLG1–1); test: Fluorescence polarization direct binding of reporter peptide, DLG1–1
SCRIB PDZ1 (SCRIB-1) [7] = biological target: T5, SCRIB PDZ1 (SCRIB-1); test: Fluorescence polarization direct binding of reporter peptide, SCRIB-1
MAGI1 PDZ2 (MAGI1–2) [8] = biological target: T4, MAGI1 PDZ2 (MAGI1–2); test: Fluorescence polarization direct binding of reporter peptide, MAGI1–2

SMILES | Ki (TIP-1 PDZ) [µM] | Ki (DLG1 PDZ1 (DLG1–1) [1]) [µM] | Ki (SNX27 PDZ (SNX27)) [µM] | Ki (NHERF2 PDZ2 (N2P2)) [µM] | Ki (NHERF1 PDZ1 (N1P1)) [µM] | IC50 (MAGI1 PDZ2 (MAGI1–2) [2]) [µM] | Ki (SCRIB PDZ1 (SCRIB-1) [3]) [µM] | IC50 (PTPN3 PDZ (PTPN3) [4]) [µM] | Ki (CAL PDZ) [µM] | Kd (PTPN3 PDZ (PTPN3) [5]) [µM] | Kd (DLG1 PDZ1 (DLG1–1) [6]) [µM] | Kd (SCRIB PDZ1 (SCRIB-1) [7]) [µM] | Kd (MAGI1 PDZ2 (MAGI1–2) [8]) [µM]
CC(C)C[C@H](NC(=O)[C@H](CCC(N)=O)NC(=O)[C@@H](NC(=O)[C@H](CCC(=O)O)NC(=O)[C@H](CCCNC(=N)N)NC(=O)[C@H](CCCNC(=N)N)NC(=O)[C@@H](NC(=O)[C@H](CCCNC(=N)N)NC(=O)[C@H](CO)NC(=O)[C@@H](N)CO)[C@@H](C)O)[C@@H](C)O)C(=O)O [HPV16 E6] | 11 ± 1 | 22 ± 12 | 1.5 ± 0.5 | 17 ± 6 | 100 ± 50 | 3.7 ± 0.1 | 20 ± 7 | 10.1 |  |  |  |  | 
CC(C)C[C@H](NC(=O)[C@H](CCCNC(=N)N)NC(=O)[C@@H](NC(=O)[C@H](CC(=O)O)NC(=O)[C@H](CCCNC(=N)N)NC(=O)[C@@H](NC(=O)[C@@H](NC(=O)[C@H](CCCNC(=N)N)NC(=O)[C@H](CO)NC(=O)[C@@H](N)CO)[C@@H](C)O)C(C)C)[C@@H](C)O)C(=O)O [CFTRP4R] (H-SSRTVRDTRL-OH) |  | 510 ± 230 | 0.44 ± 0.06 | 1.7 ± 0.5 | 6.9 ± 2.7 | 460 ± 200 | 370 ± 170 | 85 ± 39 |  |  |  |  | 
CC(C)C[C@H](NC(=O)[C@H](CCC(N)=O)NC(=O)[C@@H](NC(=O)[C@H](CCC(=O)O)NC(=O)[C@H](CCCNC(=N)N)NC(=O)[C@@H](NC(=O)[C@@H](NC(=O)[C@H](CCCNC(=N)N)NC(=O)[C@H](CO)NC(=O)[C@@H](N)CO)[C@@H](C)O)C(C)C)[C@@H](C)O)C(=O)O [HPVP5V] (H-SSRTVRETQL-OH) | 35 ± 4 | 13 ± 4 | 0.11 ± 0.03 | 7 ± 3.6 | 67 ± 28 | 4.4 ± 1.1 | 4.5 ± 2.8 | 3.4 ± 0.3 | 190 ± 10 |  |  |  | 
CC(C)C[C@H](NC(=O)[C@H](CCC(N)=O)NC(=O)[C@@H](NC(=O)[C@H](CCC(=O)O)NC(=O)[C@H](CCC(N)=O)NC(=O)[C@H](CCCNC(=N)N)NC(=O)[C@@H](NC(=O)[C@H](CCCNC(=N)N)NC(=O)[C@H](CO)NC(=O)[C@@H](N)CO)[C@@H](C)O)[C@@H](C)O)C(=O)O [HPVP4Q] (H-SSRTRQETQL-OH) | 34 ± 2 | 23 ± 6 | 0.51 ± 0.22 | 5.2 ± 0.6 | 21 ± 7 | 3.8 ± 2.1 | 13 ± 2 | 18 ± 5 | 56 ± 6 |  |  |  | 
CC(C)C[C@H](NC(=O)[C@H](CCC(N)=O)NC(=O)[C@@H](NC(=O)[C@H](CCC(=O)O)NC(=O)[C@H](CCCNC(=N)N)NC(=O)[C@H](CCCNC(=N)N)NC(=O)[C@@H](NC(=O)[C@H](CCCNC(=N)N)NC(=O)[C@H](CO)NC(=O)[C@H](CO)NC(=S)Nc1ccc2c(c1)C(=O)OC21c2ccc(O)cc2Oc2cc(O)ccc21)[C@@H](C)O)[C@@H](C)O)C(=O)O [F*-HPV16 E6] |  |  |  |  |  |  |  |  |  | 2 ± 1 | 17 ± 4 | 5.1 ± 1.7 | 12 ± 4
CC(C)C[C@H](NC(=O)[C@H](CCC(N)=O)NC(=O)[C@@H](NC(=O)[C@H](CC(=O)O)NC(=O)[C@H](CCC(N)=O)NC(=O)[C@@H](NC(=O)[C@@H](NC(=O)[C@H](CCCNC(=N)N)NC(=O)[C@H](CO)NC(=O)[C@@H](N)CO)[C@@H](C)O)C(C)C)[C@@H](C)O)C(=O)O [CFTRP1Q] (H-SSRTVQDTQL-OH) |  | 250 ± 150 | 0.26 ± 0.05 | 3.1 ± 0.5 | 25 ± 7 | 420 ± 210 | 150 ± 60 | 51 ± 14 |  |  |  |  | 
CC(C)C[C@H](NC(=O)[C@H](CCCNC(=N)N)NC(=O)[C@@H](NC(=O)[C@H](CC(=O)O)NC(=O)[C@H](CCC(N)=O)NC(=O)[C@H](CCCNC(=N)N)NC(=O)[C@@H](NC(=O)[C@H](CCCNC(=N)N)NC(=O)[C@H](CO)NC(=O)[C@@H](N)CO)[C@@H](C)O)[C@@H](C)O)C(=O)O [CFTRP5R] (H-SSRTRQDTRL-OH) |  | 430 ± 200 | 7.4 ± 4.5 | 0.49 ± 0.38 | 1.8 ± 0.3 | 220 ± 50 | 50 ± 10 | 120 ± 20 |  |  |  |  | 
CC(C)C[C@H](NC(=O)[C@H](CCCNC(=N)N)NC(=O)[C@@H](NC(=O)[C@H](CCC(=O)O)NC(=O)[C@H](CCCNC(=N)N)NC(=O)[C@H](CCCNC(=N)N)NC(=O)[C@@H](NC(=O)[C@H](CCCNC(=N)N)NC(=O)[C@H](CO)NC(=O)[C@@H](N)CO)[C@@H](C)O)[C@@H](C)O)C(=O)O [HPVP1R] (H-SSRTRRETRL-OH) | 22 ± 5 | 39 ± 11 | 2.1 ± 0.7 | 6.9 ± 1.1 | 8.8 ± 3.4 | 5.2 ± 2.4 | 13 ± 2 | 18 ± 1 | 42 ± 10 |  |  |  | 
